From patent US5082848A, “Substituted 4-aminoquinoline derivatives as gastric acid secretion inhibitors” (Smith Kline & French Laboratories, Ltd., priority 1988, dated 1992)

Experiments:
[1] = test system: pentagastrin stimulated gastric acid secretion; experiment: Rat Lumen Perfused Stomach (pentagastrin stimulated gastric acid secretion); assay type: in vivo; conditions: i.v. administration, 10 μmole/kg
From the text: B. Rat Lumen Perfused Stomach (pentagastrin stimulated gastric acid secretion).
Using a modification of the procedure described by Ghosh & Schild (Br. J. Pharmacology, 13, 54, 1958), the compounds of the following examples were found on i.v. administration at a concentration of 10 μmole/kg to cause an inhibition of pentagastrin stimulated gastric acid secretion as follows: […]

H^+ K^+ ATPase = target: T1, H^+ K^+ ATPase (Sus scrofa, UniProt P19156); experiment: K^+ -stimulated ATPase activity in lyophilised gastric vesicles; assay type: biochemical; conditions: lyophilised gastric vesicles from pig fundic mucosa, 37° C., pH 7.0, 30 minutes
T1 construct: Lyophilised gastric vesicles were prepared from pig fundic mucosa; from tissue; host or cells: pig fundic (gastric) mucosa, lyophilised gastric vesicles
T1 sequence (P19156 2-1034 limits assumed): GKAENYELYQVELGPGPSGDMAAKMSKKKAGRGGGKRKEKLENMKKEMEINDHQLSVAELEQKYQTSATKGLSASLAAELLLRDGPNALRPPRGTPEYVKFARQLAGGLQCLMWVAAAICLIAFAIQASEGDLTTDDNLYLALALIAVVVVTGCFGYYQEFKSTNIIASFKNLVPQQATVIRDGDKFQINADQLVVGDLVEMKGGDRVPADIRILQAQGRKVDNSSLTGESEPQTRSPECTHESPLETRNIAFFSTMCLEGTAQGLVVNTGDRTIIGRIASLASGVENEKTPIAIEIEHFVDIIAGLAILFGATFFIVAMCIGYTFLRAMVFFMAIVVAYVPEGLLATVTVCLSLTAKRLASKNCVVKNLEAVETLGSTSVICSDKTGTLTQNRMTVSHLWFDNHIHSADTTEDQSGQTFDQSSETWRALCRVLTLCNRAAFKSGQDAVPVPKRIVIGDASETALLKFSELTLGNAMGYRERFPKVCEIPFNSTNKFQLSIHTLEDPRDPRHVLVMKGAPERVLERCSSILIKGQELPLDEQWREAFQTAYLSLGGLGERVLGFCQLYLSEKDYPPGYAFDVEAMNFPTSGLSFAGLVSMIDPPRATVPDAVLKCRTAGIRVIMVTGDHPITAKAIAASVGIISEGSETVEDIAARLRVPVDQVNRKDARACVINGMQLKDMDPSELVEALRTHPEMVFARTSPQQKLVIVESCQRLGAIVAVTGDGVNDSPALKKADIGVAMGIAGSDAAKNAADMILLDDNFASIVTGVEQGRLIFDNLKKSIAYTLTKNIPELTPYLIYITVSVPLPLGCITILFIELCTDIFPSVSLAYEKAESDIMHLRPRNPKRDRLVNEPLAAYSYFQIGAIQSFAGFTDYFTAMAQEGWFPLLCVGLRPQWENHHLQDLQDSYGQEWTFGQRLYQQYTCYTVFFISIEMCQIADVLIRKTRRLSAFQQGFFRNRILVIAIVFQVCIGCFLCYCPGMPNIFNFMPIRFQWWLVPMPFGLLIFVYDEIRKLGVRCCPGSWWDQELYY
T1 sequence (P18434 whole entry partner): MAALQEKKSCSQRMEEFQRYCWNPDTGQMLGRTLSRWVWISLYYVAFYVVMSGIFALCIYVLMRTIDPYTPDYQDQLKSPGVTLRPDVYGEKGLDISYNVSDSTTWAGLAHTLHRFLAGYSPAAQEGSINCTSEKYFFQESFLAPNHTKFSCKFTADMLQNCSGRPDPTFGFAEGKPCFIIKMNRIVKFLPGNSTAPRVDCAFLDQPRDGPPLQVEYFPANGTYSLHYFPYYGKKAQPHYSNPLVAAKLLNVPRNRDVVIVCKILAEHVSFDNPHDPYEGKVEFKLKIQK
Method: The effects of a single high concentration (100 μM) of a compound of structure (I) on K^+ -stimulated ATPase activity in lyophilised gastric vesicles was determined. Preferred compounds of structure (I) were also tested over a range of concentrations to determine IC50 values.
Lyophilised gastric vesicles were prepared from pig fundic mucosa after the method of Keeling et. al. (Biochem. Pharmacol., 34, 2967, 1985).
K^+ -stimulated ATPase activity was determined at 37° C. in the presence of the following: 10 mM Pipes/Tris buffer pH 7.0, 2 mM MgSO4, 1 mM KCl, 2 mM Na2 ATP and 3-6 μg protein/ml lyophilised gastric vesicles. After incubation for 30 minutes, the inorganic phosphate hydrolysed from ATP was determined by the method of Yoda and Hokin (Biochem. Biophys. Res. Commun. 40, 880, 1970).
Compounds of structure (I) were dissolved in dimethylsulphoxide which up to the highest concentration
used had no effect on K^+ -stimulated ATPase activity.
The effect of the highest concentration of each compound of structure (I) on the recovery of a standard amount of inorganic phosphate was also determined.

SMILES	IC50 (H^+ K^+ ATPase)	% inhibition of pentagastrin stimulated gastric acid secretion [1]
CCCC(=O)c1cnc2c(OC)cccc2c1Nc1ccccc1CO [Example 1, 3-butyryl-4-(2-(hydroxymethyl)phenylamino)-8-methoxyquinoline]	12 µM	33%
CCCC(=O)c1cnc2c(OC)cccc2c1Nc1ccccc1COC [Example 2, 3-butyryl-4-(2-methoxymethylphenylamino)-8-methoxyquinoline]	5.5 µM	43%
CCCC(=O)c1cnc2c(OC)cccc2c1Nc1ccc(CO)cc1 [Example 4, 3-butyryl-4-(4-hydroxymethylphenylamino)-8-methoxyquinoline]		51%
CCCC(=O)c1cnc2c(OC)cccc2c1Nc1c(C)cc2c(c1C)OCO2 [Example 5, 3-butyryl-4-(3,4-methylenedioxy-2,6-dimethylphenylamino)-8-methoxyquinoline]	2.7 µM	44%

Second part, led by results:

IC50 (H^+ K^+ ATPase)	SMILES	% inhibition of pentagastrin stimulated gastric acid secretion [1]
3.6 µM	CCCC(=O)c1cnc2c(OC)cccc2c1Nc1ccc2c(c1)OCO2 [Example 3, 3-butyryl-4-(3,4-(methylenedioxy)phenylamino)-8-methoxyquinoline]	20%
6 µM	CCCC(=O)c1cnc2c(OC)cccc2c1Nc1cccc(CO)c1C [Example 6, 3-butyryl-4-(3-hydroxymethyl-2-methylphenylamino)-8-methoxyquinoline]	
10.2 µM	CCCC(=O)c1cnc2c(OC)cccc2c1Nc1cc(CO)ccc1C [Example 7, 3-butyryl-4-(5-hydroxymethyl-2-methylphenylamino)-8-methoxyquinoline]	25%
